According to publication PMC9967700, “Metabolism-Guided Optimization of Tryptophanol-Derived Isoindolinone p53 Activators” (Pharmaceuticals, 2023):
Read-outs that look alike come from different tables or passages of the source.

What was measured:
HCT116 p53−/− cells = assay: Antiproliferative activity, sulforhodamine B (SRB) assay; format: cell-based, human
Method: (§1) Tumor cells were cultured in RPMI-1640 with UltraGlutamine (Lonza, VWR), supplemented with 10% fetal bovine serum (FBS; Gibco, Alfagene) and maintained in a humidified incubator at 37 °C with 5% CO2. Cell lines were seeded in 96-well plates at the cells/well density of 5.0 × 10^3.

HCT116 p53+/+ cells = assay: as above; format: cell-based, human; settings: for S.I. (selectivity index): HCT116 p53−/− versus HCT116 p53+/+; for increase in the antiproliferative activity on bromine insertion at the C-2 indole: versus non-brominated parent isoindolinone
Method: as §1

[1] = Homo sapiens, HCT-116, 48 h, 48 h treatment, mean ± SEM of 3–5 independent experiments, read-out: HCT116 p53−/− GI50
[2] = Homo sapiens, HCT-116, 48 h treatment, mean ± SEM of 3–5 independent experiments, read-out: HCT116 p53+/+ GI50
[3] = Homo sapiens, HCT-116, 48 h, 48 h treatment, mean ± SEM of 5 independent experiments, read-out: HCT116 p53−/− GI50
[4] = Homo sapiens, HCT-116, 48 h treatment, mean ± SEM of 5 independent experiments, read-out: HCT116 p53+/+ GI50

Compound | GI50 (HCT116 p53−/− cells; [1]) [µM] | GI50 (HCT116 p53+/+ cells; [2]) [µM] | S.I. (selectivity index) (HCT116 p53+/+ cells) | other results
CCCn1c(Br)c(C[C@@H]2CO[C@@]3(c4ccccc4)c4ccccc4C(=O)N23)c2ccccc21 [13d′, (3R, 9bS)-3-((2-bromo-1-propyl-1H-indol-3-yl)methyl)-9b-phenyl-2,3-dihydrooxazolo[2,3-a]isoindol-5(9bH)-one] | 25.4 ± 1.2 | 31.1 ± 4 | – | –
O=C1c2ccccc2[C@@]2(c3ccccc3)OC[C@H](Cc3c(Br)[nH]c4ccccc34)N12 [Compound 13a, (3S, 9bR)-3-((2-bromo-1H-indol-3-yl)methyl)-9b-phenyl-2,3-dihydrooxazolo[2,3-a]isoindol-5(9bH)-one] | 10.5 ± 2.6 | 14.6 ± 0.4 | 0.7 | –
Cn1c(Br)c(C[C@H]2CO[C@]3(c4ccccc4)c4ccccc4C(=O)N23)c2ccccc21 [Compound 13c, (3S, 9bR)-3-((2-bromo-1-methyl-1H-indol-3-yl)methyl)-9b-phenyl-2,3-dihydrooxazolo[2,3-a]isoindol-5(9bH)-one] | 10.8 ± 2 | 25.6 ± 1.4 | 0.4 | –
O=C1c2ccccc2[C@@]2(c3ccc(F)cc3)OC[C@H](Cc3c(Br)[nH]c4ccccc34)N12 [Compound 13g, (3S, 9bR)-3-((2-bromo-1H-indol-3-yl)methyl)-9b-(4-fluorophenyl)-2,3-dihydrooxazolo[2,3-a]isoindol-5(9bH)-one] | 6.7 ± 1.6 | 6.95 ± 0.6 | 1.0 | increase in the antiproliferative activity on bromine insertion at the C-2 indole (HCT116 p53+/+ cells): 1.2 fold
O=C1c2ccccc2[C@@]2(c3ccc(Cl)cc3)OC[C@H](Cc3c(Br)[nH]c4ccccc34)N12 [Compound 13h, (3S, 9bR)-3-((2-bromo-1H-indol-3-yl)methyl)-9b-(4-chlorophenyl)-2,3-dihydrooxazolo[2,3-a]isoindol-5(9bH)-one] | 5.8 ± 0.4 | 5.8 ± 0.3 | 1.0 | increase in the antiproliferative activity on bromine insertion at the C-2 indole (HCT116 p53+/+ cells): 1.5 fold
O=C1c2ccccc2[C@@]2(c3ccc(Cl)c([N+](=O)[O-])c3)OC[C@H](Cc3c(Br)[nH]c4ccccc34)N12 [Compound 13i, (3S, 9bR)-3-((2-bromo-1H-indol-3-yl)methyl)-9b-(4-chloro-3-nitrophenyl)-2,3-dihydrooxazolo[2,3-a]isoindol-5(9bH)-one] | 22.2 ± 1.2 | 23.3 ± 0.9 | 1.0 | –
C[C@]12OC[C@H](C[C@@H]3C(=O)Nc4ccccc43)N1C(=O)c1ccccc12 [SLMP53-1_M3a, (3S,9bR)-9b-methyl-3-(((S)-2-oxoindolin-3-yl)methyl)-2,3-dihydrooxazolo[2,3-a]isoindol-5(9bH)-one] | – | – | – | GI50 (HCT116 p53−/− cells; [3]): > 50 µM; GI50 (HCT116 p53+/+ cells; [4]): > 50 µM
C[C@]12OC[C@H](C[C@H]3C(=O)Nc4ccccc43)N1C(=O)c1ccccc12 [SLMP53-1_M3b, (3S,9bR)-9b-methyl-3-(((R)-2-oxoindolin-3-yl)methyl)-2,3-dihydrooxazolo[2,3-a]isoindol-5(9bH)-one] | – | – | – | GI50 (HCT116 p53−/− cells; [3]): > 50 µM; GI50 (HCT116 p53+/+ cells; [4]): > 50 µM
COc1ccc(C2=N[C@@H](c3ccc(Cl)cc3)[C@@H](c3ccc(Cl)cc3)N2C(=O)N2CCNC(=O)C2)c(OC(C)C)c1 [nutlin-3a, reference compound] | – | – | – | GI50 (HCT116 p53−/− cells; control of the SRB assay, 48 h, read-out: GI50 in HCT116 p53−/−): 24 ± 0.7 µM; GI50 (HCT116 p53+/+ cells; control of the SRB assay, 48 h, read-out: GI50 in HCT116 p53+/+): 3.2 ± 1 µM

Further lines, with some results ahead:

GI50 (HCT116 p53−/− cells; [1]) [µM] | GI50 (HCT116 p53+/+ cells; [2]) [µM] | Compound | S.I. (selectivity index) (HCT116 p53+/+ cells) | other results
16 ± 2 | 13 ± 1.01 | CCn1c(Br)c(C[C@H]2CO[C@]3(c4ccccc4)c4ccccc4C(=O)N23)c2ccccc21 [Compound 13j, (3S, 9bR)-3-((2-bromo-1-ethyl-1H-indol-3-yl)methyl)-9b-phenyl-2,3-dihydrooxazolo[2,3-a]isoindol-5(9bH)-one] | 1.2 | –
> 50 | 23.2 ± 1.15 | O=C1c2ccccc2[C@@]2(c3ccccc3)OC[C@H](Cc3c(Br)n(C(=O)c4ccccc4)c4ccccc34)N12 [Compound 13l, (3S, 9bR)-3-((1-benzoyl-2-bromo-1H-indol-3-yl)methyl)-9b-phenyl-2,3-dihydrooxazolo[2,3-a]isoindol-5(9bH)-one] | – | –
22.5 ± 2.5 | 13.05 ± 0.05 | CC(=O)n1c(Br)c(C[C@H]2CO[C@]3(c4ccccc4)c4ccccc4C(=O)N23)c2ccccc21 [Compound 13m, (3S, 9bR)-3-((1-acetyl-2-bromo-1H-indol-3-yl)methyl)-9b-phenyl-2,3-dihydrooxazolo[2,3-a]isoindol-5(9bH)-one] | 1.7 | –
13.5 ± 0.5 | 12.5 ± 0.5 | CS(=O)(=O)n1c(Br)c(C[C@H]2CO[C@]3(c4ccccc4)c4ccccc4C(=O)N23)c2ccccc21 [Compound 13n, (3S, 9bR)-3-((2-bromo-1-(methylsulfonyl)-1H-indol-3-yl)methyl)-9b-phenyl-2,3-dihydrooxazolo[2,3-a]isoindol-5(9bH)-one] | 1.1 | –
20.4 ± 1.15 | 34 ± 4 | Cc1ccc(S(=O)(=O)n2c(Br)c(C[C@H]3CO[C@]4(c5ccccc5)c5ccccc5C(=O)N34)c3ccccc32)cc1 [Compound 13o, (3S, 9bR)-3-((2-bromo-1-tosyl-1H-indol-3-yl)methyl)-9b-phenyl-2,3-dihydrooxazolo[2,3-a]isoindol-5(9bH)-one] | 0.6 | less active derivative compared with SLMP53-2 (7) (HCT116 p53+/+ cells; HCT116 p53+/+): 4.0 fold
